Results from ChEMBL document CHEMBL1156829 (Proc Natl Acad Sci U S A, 2008).

Key:
[1] = NOVARTIS: Cytotoxicity against human hepatocellular carcinoma cell line (Huh7); format: toxicity, cell-based, Huh-7; settings: Huh7 cells (hepatocellular carcinoma cell line)
Plasmodium falciparum [2] = test: NOVARTIS: Inhibition of Plasmodium falciparum 3D7 (drug-susceptible) proliferation in erythrocyte-based infection assay; format: functional, organism-based; settings: Plasmodium falciparum, 3D7
Plasmodium falciparum [3] = test: NOVARTIS: Inhibition of Plasmodium falciparum W2 (drug-resistant) proliferation in erythrocyte-based infection assay; format: functional, organism-based; settings: Plasmodium falciparum, W2; read-out: EC50

| Compound | CC50 [1] [µM] | EC50 (Plasmodium falciparum [2]) [µM] | EC50 (Plasmodium falciparum [3]) [µM] |
| --- | --- | --- | --- |
| Cc1cc(C)[n+]2nc(N)c3ccccc3c2n1.[O-][Cl+3]([O-])([O-])[O-] | > 10 | 0.248 | 0.193 |
| CN(C)c1ccc(/C=C2/SC(=Nc3ccccc3)NC2=O)cc1 | > 10 | 0.109 | 0.2 |
| O=C(CN1CCCC1)Nc1ccc(Cc2ccc(NC(=O)CN3CCCC3)cc2)cc1 | 18.8 | 0.307 | 0.367 |
| c1cc(-c2nc3ccccc3[nH]2)nc(-c2nc3ccccc3[nH]2)c1 | 47.5 | 0.686 | 0.916 |
| COC(=O)c1cn([C@@H]2C[C@@H](C(=O)NCc3cccc(C(F)(F)F)c3)N(C3CCN(Cc4ccccc4)CC3)C2)nn1 | > 100 | 1.52 | 1.98 |
| CC(CNC(=O)c1ccccc1)C(=O)OCC(=O)[C@@]12OC(C)(C)O[C@@H]1CC1C3CCC4=CC(=O)C=C[C@]4(C)[C@@]3(F)[C@@H](O)C[C@@]12C (some centres undefined) | 8.22 | 0.165 | 0.159 |
| S=C(NN=CC=NNC(=S)Nc1ccccc1)Nc1ccccc1 | 15 | 1.04 | 0.288 |
| Cc1ccc(OCCCCCCNCCO)c(C)c1 | 20.4 | 1.97 | 0.391 |
| CCOC(=O)c1c(C)n(-c2ccccc2)c2ccc(OC(=O)c3ccccc3NC(=O)C(C)C)cc12 | > 100 | 0.885 | 1.99 |
| CC(=O)N(C)C1=C(N2CCCC2)C(=O)c2ccccc2C1=O | 15.1 | 0.516 | 0.299 |
| COc1ccc(C=C2N=C(c3ccc(Cl)cc3)N(c3ccccc3)C2=O)cc1OC | > 100 | > 12.5 | 1.99 |
| COc1ccc(NC(=O)c2cc3cc(C4(O)CCN(CC(C)c5ccccc5)CC4)ccc3o2)cc1 (centres undefined) | > 100 | 2.4 | 1.98 |
| COC(C)(C)CNCc1cc2cc3c(cc2n(Cc2cccc(C(F)(F)F)c2)c1=O)CCC3 | > 10 | > 1.25 | > 0.198 |
| C#CC(C)(C)NC(=O)c1ccc(-c2ccc(CC)cc2)cc1 | > 100 | 3.03 | 1.97 |
| COc1cc(OC)c(NC(=O)c2ccc(N3CC4CC(C3)c3cccc(=O)n3C4)c([N+](=O)[O-])c2)cc1Cl (centres undefined) | > 100 | 9.69 | 1.93 |
| CCCCn1c(=N)n(CC(O)c2ccc(Cl)c(Cl)c2)c2ccccc21 (centres undefined) | 6.24 | 0.0625 | 0.12 |
| COc1cccc(-c2cn3c(n2)sc2cc(C(=O)NC4CCN(Cc5ccccc5)CC4)ccc23)c1 | > 100 | 0.513 | 1.98 |
| CCCc1ccc(C(=O)NC(=O)c2ccccc2O)cc1 | 16.5 | 0.193 | 0.325 |
| CC(=O)N(C=C1Sc2ccccc2C1=O)c1ccc(C)cc1 | > 100 | 10.7 | 1.97 |
| C=CC(C)(CCC=C(C)C)c1ccc2c3c(c[nH]c13)CC(CO)NC(=O)C(C(C)C)N2C (centres undefined) | > 10 | 0.552 | 0.197 |
| COc1cccc(C=NNC(=O)CSc2ccccc2C)c1O | > 100 | 7.94 | 1.96 |
| COc1ccc(S(=O)(=O)N(C)CCCNc2ccnc3cc(Cl)ccc23)cc1 | 10.1 | 0.115 | 0.197 |
| Cc1cccc(NC(=O)c2cc(Cl)nc3ccccc23)c1 | > 100 | 3.67 | 1.94 |
| Cc1ccc(C(=O)NNc2nc(Nc3ccccc3)nc(N3CCCC3)n2)cc1 | > 100 | > 12.5 | 1.99 |
| CN(C)S(=O)(=O)c1ccc(C(=O)Nc2nc3c(ccc4ccccc43)s2)cc1 | > 100 | > 9.47 | 1.97 |
| CN(CCCNc1ccnc2cc(Cl)ccc12)S(=O)(=O)c1ccc([N+](=O)[O-])cc1 | > 11.1 | 0.24 | 0.217 |
| CC1CN(C2CC(=O)N(c3ccccc3)C2=O)CC(C)O1 (centres undefined) | > 10 | 0.873 | > 0.195 |

| Compound | CC50 [1] [µM] | EC50 (Plasmodium falciparum [2]) [µM] | EC50 (Plasmodium falciparum [3]) [µM] |
| --- | --- | --- | --- |
| CC1=C(C(=O)OC2CCCCC2)C(c2cccc([N+](=O)[O-])c2)C2=C(CCCC2=O)N1 (centres undefined) | 68.4 | 1.64 | 1.33 |
| CC(=O)c1cccc(CN2CCC(C(=O)Nc3ccc(-n4nc(C)cc4C)cc3)CC2)c1 | > 100 | 2.16 | 1.95 |
| CC(C)c1ccc(C=CC(=O)NCc2ccco2)cc1 | > 100 | 1.48 | 2 |
| O=c1c2[nH]c3ccccc3c2ncn1Cc1ccc2c(c1)OCO2 | > 100 | > 12.5 | 2 |
| Cc1nc(-c2ccc[n+](C)c2)sc1C(=O)/C=C/c1ccc(Cl)cc1 | > 10 | 0.283 | 0.2 |
| CC(=O)c1ccc(-n2cc(C(=O)C(C)Oc3ccc(Cl)cc3Cl)nn2)cc1 (centres undefined) | > 10 | 0.0729 | 0.192 |
| FC(F)(F)c1ccc(-c2nc(C34CC5CC(CC(C5)C3)C4)cs2)cc1 | > 10 | 1.57 | 0.2 |
| CCN(CC)CCCNC(=S)N(CCN(C)C)Cc1cc2cc(C)cc(C)c2[nH]c1=O | > 100 | 2.42 | 2 |
| Cc1cccc(NC(=O)c2ccc(N3CC4CC(C3)c3cccc(=O)n3C4)c(NC(=O)Cc3c(F)cccc3Cl)c2)n1 (centres undefined) | > 10 | > 1.45 | 0.197 |
| CCC(COC)NC(=O)c1cn(C2CCCCC2)cc(C(=O)NC(C)(C)C)c1=O (centres undefined) | > 100 | 2.9 | 1.99 |
| O=C(O)CC(c1ccc2c(c1)OCO2)N1CCS(=O)(=O)CC1 (centres undefined) | > 10 | > 1.25 | > 0.196 |
| O=C(Cc1cccs1)N1CCN(c2ccccn2)CC1 | > 100 | 3.95 | 1.93 |
| O=C(Nc1ccc(-c2nc3cc(NC(=O)c4cccs4)ccc3[nH]2)cc1)c1cccs1 | > 100 | 1.55 | 2.01 |
| O=C(CSc1ccc(Cl)cc1)NN=C1C(=O)Nc2ccccc21 | > 100 | > 12.5 | > 1.99 |
| C=C[C@H]1CN2CC[C@H]1C[C@@H]2[C@@H](OC(=O)C(C)C)c1ccnc2ccccc12 | > 10 | 0.318 | 0.199 |
| Cc1cc(N2CCCCC2)nc(NCc2ccccc2)n1 | 38.4 | 5.76 | 0.739 |
| CCOc1ccc(C(=O)CN2C(=O)c3ccccc3OC(C(C)C)C2=O)cc1[N+](=O)[O-] (centres undefined) | > 100 | > 12.5 | 1.92 |
| CCOC(=O)CCCSc1nc(-c2cccs2)cc(C(F)(F)F)c1C#N | > 10 | 0.352 | 0.198 |
| CNC1CC2OC(C)(C1OC)n1c3ccccc3c3c4c(c5c6ccccc6n2c5c31)C(=O)NC4O (centres undefined) | […] | 0.19 | > 0.195 |
| Cc1ncc([N+](=O)[O-])n1CCOC(=O)c1c(NC(=O)c2ccccc2)sc2c1CCCC2 | > 100 | 2.6 | 2 |
| O=C1NC(=S)NC1=Cc1ccc(C(F)(F)F)cc1 | > 100 | > 12.5 | 1.92 |
| O=C1NC(=S)NC1=Cc1cccc(Oc2ccccc2)c1 | > 100 | > 6.89 | 1.95 |
| CN(CCCNc1ccnc2cc(Cl)ccc12)C(=O)C(C)(C)CCl | > 10 | 0.0949 | 0.193 |
| CCCC(C)C(C(=O)Nc1c(C)cccc1C)N1C(=O)c2cc(NC(C)=O)ccc2NC(=O)[C@@H]1CCC(=O)O (some centres undefined) | 8.51 | 1.46 | > 0.163 |
| CCOc1ccc2nc3cc(NCc4ccco4)ccc3c(N)c2c1 | 37.9 | 0.846 | 0.757 |
| CCOC(=O)c1cc(-c2ccccc2)n(CCC(=O)Nc2ccccc2N2CCN(C)CC2)c1C | 17.3 | 0.794 | 0.336 |
